Experiments:
Type in all cases: in vivo, rat
TGF-β = experiment: Glomerular secretion of active TGF-β (NRK-bioassay of supernatants of isolated glomeruli) in anti-Thy1 rats; conditions: day 8 glomeruli, 24 h supernatant, NRK-bioassay; continuous i.v. peptide infusion
Excerpt: (§1) Experimental design. Experimental mesangial proliferative glomerulonephritis was induced using the monoclonal mouse anti-Thy1 antibody OX-7. Peptides were continuously infused intravenously (i.v.) via jugular vein using osmotic minipumps starting sixteen hours after disease induction. The effects of the hexapeptide AAWSHW (SEQ ID NO:22) (that interferes with the TSP1-mature TGF-β interaction) or the LSKL-peptide (SEQ ID NO:21) (that blocks the TSP1-LAP interaction) were compared to a control peptide (SLLK) in the anti-Thy1 model. Tissues from different time points (days three, five, eight) of this experiment were analyzed in regard to mesangiolysis, macrophage-influx, MC-proliferation, MC-activation, microaneurysm and matrix formation, GEN proliferation, TSP1, TGF-β1 and 2, as well as TGF-βRI and RII. Functional parameters such as blood pressure, proteinuria, and creatinine clearance were also determined. On day eight, glomerular secretion of active TGF-β was determined in individual animals by incubating isolated glomeruli for twenty-four hours in DMEM and measuring TGF-β activity in glomerular supernatants using the NRK-bioassay.
(§2) Animal model Experimental mesangial proliferative glomerulonephritis (anti-Thy1 model) was induced in Sprague Dawley rats (180-200 g; Charles River, Sulzfeld, Germany) by a single injection of 1 mg/kg of the mouse monoclonal anti-Thy1 antibody OX-7 (European Collection of Animal Cell Culture, Salisbury, England). In this animal model, complete anti-Thy1 antibody binding occurs within an hour (Johnson et al. (1991) Am. J. Pathol. 138 (2), 313-21). To avoid potential interference of the LAP-peptides with anti-Thy1 antibody binding and subsequent mesangiolysis, the peptide treatment was started sixteen hours after disease induction, when binding of the anti-Thy1 antibody to the mesangium and subsequent mesangiolysis had already occurred. The peptides used in this study were synthesized, purified, and analyzed as described elsewhere (Crawford et al. (1998) Cell 93, 1159-1170).
Renal biopsies as described previously (Hugo et al. (1997) J. Clin. Invest. 100, 786-794) were performed on days three and five, and the experiment was finished on day eight. To determine DNA incorporation into proliferating cells, each animal was injected intravenously with BrdU (50 mg/kg bw) ninety minutes before the second survival biopsy was taken on day five (peak of MC proliferation). Renal biopsies were fixed in methyl Carnoy's, 10% formalin and/or OCT and snap frozen. A twenty-four hour urine collection for measurement of protein and creatinine was done from day seven to eight, when maximal proteinuria occurs in this model (unpublished observation). Blood pressure measurements were done twice before and twice after disease induction. In renal biopsies, the frequency of glomerular microaneurysms, the number of infiltrating macrophages, the number of proliferating MC, the expression of the contractile protein α-sm actin as a marker of MC-activation, and the expression of TGF-β1, TGF-β2, TGF-βRI, TGF-βRII, TSP1, as well as of extracellular matrix proteins such as collagen I, collagen IV and fibronectin were determined. For TGF-β activity measurements in individual animals on day eight, glomeruli were isolated by differential sieving (Johnson et al. (1991) Am. J. Pathol. 138 (2), 313-21) and counted using five aliquots. Glomerular isolates were discarded if purity was less than 95%. 8000 glomeruli/ml were incubated in DMEM at 37° C. […]

[1] = system: rats with anti-Thy1 disease; experiment: Glomerular extracellular matrix formation (Masson's Trichrome, collagen I, collagen IV, fibronectin stains) in the anti-Thy1 model
Excerpt: as §1, §2
(§3) Renal biopsies as described previously (Hugo et al. (1997) J. Clin. Invest. 100, 786-794) were performed on days three and five, and the experiment was finished on day eight. To determine DNA incorporation into proliferating cells, each animal was injected intravenously with BrdU (50 mg/kg bw) ninety minutes before the second survival biopsy was taken on day five (peak of MC proliferation). Renal biopsies were fixed in methyl Carnoy's, 10% formalin and/or OCT and snap frozen. A twenty-four hour urine collection for measurement of protein and creatinine was done from day seven to eight, when maximal proteinuria occurs in this model (unpublished observation). Blood pressure measurements were done twice before and twice after disease induction. In renal biopsies, the frequency of glomerular microaneurysms, the number of infiltrating macrophages, the number of proliferating MC, the expression of the contractile protein α-sm actin as a marker of MC-activation, and the expression of TGF-β1, TGF-β2, TGF-βRI, TGF-βRII, TSP1, as well as of extracellular matrix proteins such as collagen I, collagen IV and fibronectin were determined. For TGF-β activity measurements in individual animals on day eight, glomeruli were isolated by differential sieving (Johnson et al. (1991) Am. J. Pathol. 138 (2), 313-21) and counted using five aliquots. Glomerular isolates were discarded if purity was less than 95%. 8000 glomeruli/ml were incubated in DMEM at 37° C. After a twenty-four hour incubation period, glomerular supernatants were stored by −70° C. until TGF-β activity measurements were done.
(§4) Peptide infusion. All peptides (at a concentration of 3.5 mg/ml) were continuously infused for seven days via a catheter in the right jugular vein using osmotic minipumps (Alzet Corp./Charles River, Sulzfeld, Germany). […]

[2] = system: rats with anti-Thy1 disease; experiment: Functional parameters (proteinuria, creatinine clearance, blood urea nitrogen, systolic blood pressure) in the anti-Thy1 model
Excerpt: as §1, §2, §3, §4

[3] = system: rats with anti-Thy1 disease; experiment: Glomerular immunostaining score for TGF-β1, TGF-β2, TGF-βRI, TGF-βRII and TSP1 in the anti-Thy1 model
Excerpt: as §1, §2, §3, §4

[4] = system: rats with anti-Thy1 disease; experiment: Glomerular MC-proliferation, MC-activation and macrophage influx in the anti-Thy1 model
Excerpt: as §1, §2, §3, §4

[5] = system: rats with anti-Thy1 disease; experiment: Mesangiolysis, microaneurysm formation and GEN-proliferation in the anti-Thy1 model
Excerpt: as §1, §2, §3, §4

Substance: control/SLLK: control peptide SLLK (SEQ ID NO:47), group 1 [reference compound]
- Active TGF-β (colonies > 62 um) (TGF-β): 380 ± 60 colonies > 62 um
- Matrix Collagen 1 (score 0-4) ([1]; day 3): 0.1 ± 0.1 score 0-4
- Matrix Collagen IV (score 0-4) ([1]; day 3): 1.2 ± 0.4 score 0-4
- Matrix Fibronectin (score 0-4) ([1]; day 3): 1.5 ± 0.8 score 0-4
- Matrix Trichrome (score 0-3) ([1]; day 3): 0.7 ± 0.3 score 0-3
- Matrix Collagen 1 (score 0-4) ([1]; day 5): 2.3 ± 0.5 score 0-4
- Matrix Collagen IV (score 0-4) ([1]; day 5): 3.3 ± 0.4 score 0-4
- Matrix Fibronectin (score 0-4) ([1]; day 5): 3.2 ± 0.4 score 0-4
- Matrix Trichrome (score 0-3) ([1]; day 5): 1.5 ± 0.2 score 0-3
- Matrix Collagen 1 (score 0-4) ([1]; day 8): 2.0 ± 0.5 score 0-4
- Matrix Collagen IV (score 0-4) ([1]; day 8): 2.6 ± 0.6 score 0-4
- Matrix Fibronectin (score 0-4) ([1]; day 8): 2.3 ± 0.9 score 0-4
- Matrix Trichrome (score 0-3) ([1]; day 8): 2.3 ± 0.4 score 0-3
- Proteinuria (mg/24 hours) ([2]; day 8 (urine collection day seven to eight)): 83 ± 40 mg/24 hours
- twenty-four hour proteinuria ([2]; days seven to eight): 83±40 mg/twenty-four hours
- Blood urea nitrogen ([2]; rat, in vivo): 33.2 ± 12.7 mg/dL
- TGF-β1 (score 0-4) ([3]; day 3): 0.2 ± 0.2 score 0-4
- TGF-β2 (score 0-4) ([3]; day 3): 0.2 ± 0.1 score 0-4
- TGF-βRI (score 0-4) ([3]; day 3): 0.4 ± 0.2 score 0-4
- TGF-βRII (score 0-4) ([3]; day 3): 0.4 ± 0.3 score 0-4
- TSP I (score 0-4) ([3]; day 3): 0.2 ± 0.2 score 0-4
- TGF-β1 (score 0-4) ([3]; day 5): 2.6 ± 0.6 score 0-4
- TGF-β2 (score 0-4) ([3]; day 5): 1.6 ± 0.4 score 0-4
- TGF-βRI (score 0-4) ([3]; day 5): 1.9 ± 0.5 score 0-4
- TGF-βRII (score 0-4) ([3]; day 5): 1.9 ± 0.5 score 0-4
- TSP I (score 0-4) ([3]; day 5): 2.0 ± 0.6 score 0-4
- TGF-β1 (score 0-4) ([3]; day 8): 1.5 ± 0.8 score 0-4
- TGF-β2 (score 0-4) ([3]; day 8): 1.3 ± 0.8 score 0-4
- TGF-βRI (score 0-4) ([3]; day 8): 1.8 ± 0.9 score 0-4
- TGF-βRII (score 0-4) ([3]; day 8): 1.3 ± 0.8 score 0-4
- TSP I (score 0-4) ([3]; day 8): 0.6 ± 0.3 score 0-4
- MC-activation α-sm actin (score 0-4) ([4]; day 3): 0.8 ± 0.4 score 0-4
- MC-proliferation (OX-7 + /PCNA + cells/glomerulus) ([4]; day 3): 3.6 ± 0.7 cells/glomerulus
- Macrophages (ED-1 + cells/glomerulus) ([4]; day 3): 4.5 ± 1.6 cells/glomerulus
- MC-activation α-sm actin (score 0-4) ([4]; day 5): 2.9 ± 0.3 score 0-4
- MC-proliferation (OX-7 + /BrdU + cells/glomerulus) ([4]; day 5): 4.7 ± 0.8 cells/glomerulus
- MC-proliferation (OX-7 + /PCNA + cells/glomerulus) ([4]; day 5): 9.1 ± 1.5 cells/glomerulus
- Macrophages (ED-1 + cells/glomerulus) ([4]; day 5): 1.9 ± 0.5 cells/glomerulus
- MC-activation α-sm actin (score 0-4) ([4]; day 8): 2.9 ± 0.5 score 0-4
- MC-proliferation (OX-7 + /PCNA + cells/glomerulus) ([4]; day 8): 4.2 ± 0.5 cells/glomerulus
- Macrophages (ED-1 + cells/glomerulus) ([4]; day 8): 1.5 ± 0.5 cells/glomerulus
- Glomerular Microaneurysm (in percent) ([5]; day 3): 34.0 ± 30.1%
- Glomerular Microaneurysm (in percent) ([5]; day 5): 20.6 ± 22.7%
- Glomerular Microaneurysm (in percent) ([5]; day 8): 6.0 ± 5.9%
- Glomerular GEN-proliferation (double staining for RECA-1 and PCNA) ([5]; day three): 2.2 cells/glomerular cross-section
- mesangiolysis scores ([5]; day three, scale 0-IV): 2.7±0.5
